From patent publication US4055553A, “(Gly3 -Ala)^1 -somatostatin” (American Home Products Corporation, priority 1975, dated 1977)

What was measured:
glucagon = assay: arginine-stimulated hormone release in Nembutal-anaesthetised rats, blood assayed for glucagon; format: in vivo, albino male rats
Experimental: (§1) The in vivo activity of the compounds of this invention was established by subjecting (Gly3 -Ala)^1 -Somatostatin, as a representative compound of this invention, to the following standard test procedure: three groups of nine albino male rats were arranged to provide a control group, a group for observation of Somatostatin activity as the standard and a group for the study of the test compound (Gly3 -Ala)^1 -Somatostatin. Nembutal (50 mg/kg) was injected intraperitoneally into each rat. Fifteen minutes later a subcutaneous injection of the test compound, somatostatin (200 μg/kg) and physiological saline was administered separately to each of the three groups of rats. Ten minutes later 0.5 milliliters of arginine (300 mg/ml, pH 7.2) was injected into the rats heart. The rats were decapitated five minutes later and their blood was collected in Trasylol® -EDTA. Aliquot samples were assayed for growth hormone, glucagon and/or insulin. The compound of this invention, selected as representative of the group of compounds disclosed for test pruposes, was employed in two distinct test procedures at the 100 μg/kg and 300 μg/kg dose levels.

insulin = assay: arginine-stimulated hormone release in Nembutal-anaesthetised rats, blood assayed for insulin; format: in vivo, albino male rats
Experimental: as §1

[1] = test system: growth hormone, glucagon and/or insulin; assay: standard in vivo test procedure, overall activity compared with somatostatin; design: species or system albino male rats; details: at the 100 and 300 μg/kg dose levels
Experimental: as §1

growth hormone = assay: arginine-stimulated hormone release in Nembutal-anaesthetised rats, blood assayed for growth hormone; format: in vivo, albino male rats; details: saline control 133 ± 15
Experimental: as §1

SMILES	Glucagon (glucagon; first test, test compound 100 μg/kg subcutaneous, arginine intracardiac 10 min later, blood 5 min after arginine, saline control 6.4 ± 1.5) [picograms/ml]	Glucagon (glucagon; second test, test compound 300 μg/kg subcutaneous, saline control 4.2 ± 0.6) [picograms/ml]	Insulin (insulin; first test, test compound 100 μg/kg subcutaneous, arginine intracardiac 10 min later, blood 5 min after arginine, saline control 199 ± 15) [μ units/ml]	Insulin (insulin; second test, test compound 300 μg/kg subcutaneous, saline control 165 ± 13) [μ units/ml]	activity relative to somatostatin itself [1]	GH (growth hormone; second test, test compound 300 μg/kg subcutaneous) [ng/mL]	Glucagon (glucagon; first test (run beside the 100 μg/kg group), somatostatin standard 200 μg/kg subcutaneous, saline control 6.4 ± 1.5) [picograms/ml]	Glucagon (glucagon; second test (run beside the 300 μg/kg group), somatostatin standard 200 μg/kg subcutaneous, saline control 4.2 ± 0.6) [picograms/ml]	Insulin (insulin; first test (run beside the 100 μg/kg group), somatostatin standard 200 μg/kg subcutaneous, saline control 199 ± 15) [μ units/ml]	Insulin (insulin; second test (run beside the 300 μg/kg group), somatostatin standard 200 μg/kg subcutaneous, saline control 165 ± 13) [μ units/ml]	GH (growth hormone; second test (run beside the 300 μg/kg group), somatostatin standard 200 μg/kg subcutaneous) [ng/mL]
C[C@H](NC(=O)CNC(=O)CNC(=O)CN)C(=O)NCC(=O)N[C@H]1CSSC[C@@H](C(=O)O)NC(=O)[C@H](CO)NC(=O)[C@H]([C@@H](C)O)NC(=O)[C@H](Cc2ccccc2)NC(=O)[C@H]([C@@H](C)O)NC(=O)[C@H](CCCCN)NC(=O)[C@H](Cc2c[nH]c3ccccc23)NC(=O)[C@H](Cc2ccccc2)NC(=O)[C@H](Cc2ccccc2)NC(=O)[C@H](CC(N)=O)NC(=O)[C@H](CCCCN)NC1=O [(Gly3 -Ala)^1 -Somatostatin, glycyl-glycyl-glycyl-L-alanylglycyl-L-cysteinyl-L-lysyl-L-asparaginyl-L-phenylalanyl-L-phenylalanyl-L-tryptophyl-L-lysyl-L-threonyl-L-phenylalanyl-L- threonyl-L-seryl-L-cysteine cyclic (6→.intg.) disulfide, triacetate]	0.5 ± 0.1	1.4 ± 0.7	130 ± 14	104 ± 10	comparable in activity	27 ± 7					
C[C@H](N)C(=O)NCC(=O)N[C@H]1CSSC[C@@H](C(=O)O)NC(=O)[C@H](CO)NC(=O)[C@H]([C@@H](C)O)NC(=O)[C@H](Cc2ccccc2)NC(=O)[C@H]([C@@H](C)O)NC(=O)[C@H](CCCCN)NC(=O)[C@H](Cc2c[nH]c3ccccc23)NC(=O)[C@H](Cc2ccccc2)NC(=O)[C@H](Cc2ccccc2)NC(=O)[C@H](CC(N)=O)NC(=O)[C@H](CCCCN)NC1=O [Somatostatin]							1.5 ± 0.8	1.6 ± 0.9	202 ± 29	115 ± 11	12 ± 2
